Drawing on patent publication US9670227B2, “Thienopyrimidine derivatives, a process for their preparation and pharmaceutical compositions containing them” (LES LABORATOIRES SERVIER, priority 2013, dated 2017), this text covers IC50 for 19 compounds.

One test concerns the target Mcl-1 protein (UniProtKB primary accession number: Q07820) (Homo sapiens, UniProt Q07820). The experiment in a line: Inhibition of Mcl-1 by fluorescence polarisation, Method 1. The settings on record: read-out: IC50 (M) Mcl-1 FP. Format: binding. In short, it runs like this: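 FP readout of relative binding potency. Mcl-1 5 nM final, fluorescein-labelled ligand 1 nM final; buffer 10 mM HEPES, 150 mM NaCl, 0.05% Tween 20, pH 7.4; 11-pt dilution series, 5% DMSO final.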

Test [1] has as its system H929 multiple myeloma tumour line. The experiment in a line: In vitro cytotoxicity, Microculture Tetrazolium Assay. Format: cell-based. The conditions noted are these: H929 cells, 48 hours exposure, MTT, read-out: IC50 (μM) MTT H929. On the procedure:
The cytotoxicity studies were carried out on the H929 multiple myeloma tumour line.
The cells are distributed onto microplates and exposed to the test compounds for 48 hours.

Setting [2] is: fluorescence polarisation test, Method 2 values are underlined in the patent (underlining not visible here).
[3] abbreviates: fluorescence polarisation, Method 1, or Method 2.

Where two headings read alike, the source gives them in different places.

Mcl-1 protein, sequence (Q07820 whole entry): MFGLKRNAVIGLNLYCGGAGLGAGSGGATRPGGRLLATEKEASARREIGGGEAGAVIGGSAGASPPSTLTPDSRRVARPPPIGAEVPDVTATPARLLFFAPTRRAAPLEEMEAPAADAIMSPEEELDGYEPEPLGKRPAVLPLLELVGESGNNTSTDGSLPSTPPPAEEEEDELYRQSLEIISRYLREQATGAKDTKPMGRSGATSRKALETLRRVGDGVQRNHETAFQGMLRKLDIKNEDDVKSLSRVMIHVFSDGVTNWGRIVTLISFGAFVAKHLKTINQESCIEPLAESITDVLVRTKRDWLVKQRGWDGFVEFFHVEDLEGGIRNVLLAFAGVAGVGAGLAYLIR

In general, IC50 refers to the concentration needed to halve the response being measured. Consider `CCc1sc2ncnc(OC(Cc3ccccc3)C(=O)O)c2c1-c1ccc(OCC(=O)N(C)C)c(Cl)c1C` [Example 390, (2R)-2-[((5Sa)-5-{3-chloro-4-[2-(dimethylamino)-2-oxoethoxy]-2-methylphenyl}-6-ethylthieno[2,3-d]pyrimidin-4-yl)oxy]-3-phenylpropanoic acid], for which the IC50 is 4e-08 M at Mcl-1 protein (setting [2]) and 20 µM in test [1] (Homo sapiens, NCI-H929, 48 h).

Regarding `Cc1c(-c2c(-c3ccc(F)o3)sc3ncnc(OC(Cc4ccccc4OCC(=O)NCc4ccccc4)C(=O)O)c23)ccc(OCCN2CCN(C)CC2)c1Cl` [Example 153, (2R)-3-{2-[2-(benzylamino)-2-oxoethoxy]phenyl}-2-{[(5Sa)-5-{3-chloro-2-methyl-4-[2-(4-methylpiperazin-1-yl)ethoxy]phenyl}-6-(5-fluorofuran-2-yl)thieno[2,3-d]pyrimidin-4-yl]oxy}propanoic acid], the IC50 at Mcl-1 protein (setting [2]) stood at 5e-09 M; in test [1] (Homo sapiens, NCI-H929, 48 h), 0.146 µM.

For the compound `Cc1c(-c2c(-c3ccco3)sc3ncnc(OC(Cc4ccccc4OCc4cnnn4Cc4ccccc4)C(=O)O)c23)ccc(OCCN2CCN(C)CC2)c1Cl` [Example 295, (2R)-3-{2-[(1-benzyl-1H-1,2,3-triazol-5-yl)methoxy]phenyl}-2-{[(5Sa)-5-{3-chloro-2-methyl-4-[2-(4-methylpiperazin-1-yl)ethoxy]phenyl}-6-(furan-2-yl)thieno[2,3-d]pyrimidin-4-yl]oxy}propanoic acid], the IC50 stood at 4.7e-09 M on Mcl-1 protein (setting [2]) and 0.021 µM in test [1] (Homo sapiens, NCI-H929, 48 h).

Take `Cc1c(-c2c(-c3ccco3)sc3ncnc(OC(Cc4ccccc4F)C(=O)O)c23)ccc(OCCN2CCN(C)CC2)c1Cl` [Example 357, (2R)-2-{[(5Sa)-5-{3-chloro-2-methyl-4-[2-(4-methylpiperazin-1-yl)ethoxy]phenyl}-6-(furan-2-yl)thieno[2,3-d]pyrimidin-4-yl]oxy}-3-(2-fluorophenyl)propanoic acid]: the IC50 was 5.5e-07 M on Mcl-1 protein (setting [2]) and 3.39 µM in test [1].

Take `Cc1c(-c2c(-c3ccc(F)o3)sc3ncnc(OC(Cc4ccccc4OCc4ccnn4CC4CC4)C(=O)O)c23)ccc(OCCN2CCN(C)CC2)c1Cl` [Example 186, (2R)-2-{[(5Sa)-5-{3-chloro-2-methyl-4-[2-(4-methylpiperazin-1-yl)ethoxy]phenyl}-6-(5-fluorofuran-2-yl)thieno[2,3-d]pyrimidin-4-yl]oxy}-3-(2-{[1-(cyclopropylmethyl)-1H-pyrazol-5-yl]methoxy}phenyl)propanoic acid]: the IC50 at Mcl-1 protein (setting [2]) amounted to 4.3e-09 M; in test [1] (Homo sapiens, NCI-H929, 48 h), 0.013 µM.

Take `COc1ccccc1CC(Oc1ncnc2sc(-c3ccc(F)o3)c(-c3ccc(OCCN(C)C)c(Cl)c3C)c12)C(=O)O` [Example 199, (2R)-2-{[(5Sa)-5-{3-chloro-4-[2-(dimethylamino)ethoxy]-2-methylphenyl}-6-(5-fluorofuran-2-yl)thieno[2,3-d]pyrimidin-4-yl]oxy}-3-(2-methoxyphenyl)propanoic acid]: the IC50 on Mcl-1 protein (setting [2]) was found to be 6.6e-09 M; in test [1] (Homo sapiens, NCI-H929, 48 h), 0.28 µM.

For `Cc1sccc1-c1nccc(COc2ccccc2CC(Oc2ncnc3sc(-c4ccc(F)cc4)c(-c4ccc(OCCN5CCN(C)CC5)c(Cl)c4C)c23)C(=O)O)n1` [Example 121, (2R)-2-{[(5Sa)-5-{3-chloro-2-methyl-4-[2-(4-methylpiperazin-1-yl)ethoxy]phenyl}-6-(4-fluorophenyl)thieno[2,3-d]pyrimidin-4-yl]oxy}-3-(2-{[2-(2-methylthiophen-3-yl)pyrimidin-4-yl]methoxy}phenyl)propanoic acid], the IC50 on Mcl-1 protein (setting [2]) was determined as 5.6e-09 M; in test [1] (Homo sapiens, NCI-H929, 48 h), 0.015 µM.

For `COc1cnccc1-c1nccc(COc2ccccc2CC(Oc2ncnc3sc(-c4ccc(F)cc4)c(-c4ccc(OCCN5CCN(C)CC5)c(Cl)c4C)c23)C(=O)O)n1` [Example 730, (2R)-2-{[(5Sa)-5-{3-chloro-2-methyl-4-[2-(4-methylpiperazin-1-yl)ethoxy]phenyl}-6-(4-fluorophenyl)thieno[2,3-d]pyrimidin-4-yl]oxy}-3-(2-{[2-(3-methoxypyridin-4-yl)pyrimidin-4-yl]methoxy}phenyl)propanoic acid], the IC50 was found to be 9.48e-10 M on Mcl-1 protein (setting [3]) and 0.005 µM in test [1] (Homo sapiens, NCI-H929, 48 h).

In the case of `Cc1c(-c2c(-c3ccc(F)c(F)c3)sc3ncnc(OC(Cc4ccccc4OCc4ccnc(C(F)(F)F)n4)C(=O)O)c23)ccc(OCCN2CCN(C)CC2)c1Cl` [Example 707, (2R)-2-{[(5Sa)-5-{3-chloro-2-methyl-4-[2-(4-methylpiperazin-1-yl)ethoxy]phenyl}-6-(3,4-difluorophenyl)thieno[2,3-d]pyrimidin-4-yl]oxy}-3-(2-{[2-(trifluoromethyl)pyrimidin-4-yl]methoxy}phenyl)propanoic acid], the IC50 is 1.4e-08 M at Mcl-1 protein (setting [3]) and 0.042 µM in test [1] (Homo sapiens, NCI-H929, 48 h).

Take `COc1ccccc1-c1nccc(COc2ccccc2CC(Oc2ncnc3sc(-c4ccc(Oc5ccccc5)cc4)c(-c4ccc(OCCN5CCN(C)CC5)c(Cl)c4C)c23)C(=O)O)n1` (single isomer, unassigned) [Example 759]: the IC50 on Mcl-1 protein (setting [3]) stood at 9.06e-09 M; in test [1] (Homo sapiens, NCI-H929, 48 h) it was 0.054 µM.

With `COc1cc(COc2ccccc2CC(Oc2ncnc3sc(-c4ccc(F)cc4)c(-c4ccc(OCCN5CCN(C)CC5)c(Cl)c4C)c23)C(=O)O)nc(OC)n1` [Example 8, (2R)-2-{[(5Sa)-5-{3-chloro-2-methyl-4-[2-(4-methylpiperazin-1-yl)ethoxy]phenyl}-6-(4-fluorophenyl)thieno[2,3-d]pyrimidin-4-yl]oxy}-3-{2-[(2,6-dimethoxypyrimidin-4-yl)methoxy]phenyl}propanoic acid], the IC50 on Mcl-1 protein (setting [2]) was found to be 1.6e-08 M; in test [1] (Homo sapiens, NCI-H929, 48 h) it was 0.145 µM.

For the compound `CCOc1nccc(COc2ccccc2CC(Oc2ncnc3sc(-c4ccc(F)cc4)c(-c4ccc(OCCN(C)C)c(Cl)c4C)c23)C(=O)O)n1` [Example 130, (2R)-2-{[(5Sa)-5-{3-chloro-4-[2-(dimethylamino)ethoxy]-2-methylphenyl}-6-(4-fluorophenyl)thieno[2,3-d]pyrimidin-4-yl]oxy}-3-{2-[(2-ethoxypyrimidin-4-yl)methoxy]phenyl}propanoic acid], the IC50 is 3.4e-09 M on Mcl-1 protein (setting [2]) and 0.065 µM in test [1] (Homo sapiens, NCI-H929, 48 h).

`COc1ccccc1-c1nccc(COc2ccccc2CC(Oc2ncnc3sc(C#CCCCc4ccccc4)c(-c4ccc(OCCN5CCN(C)CC5)c(Cl)c4C)c23)C(=O)O)n1` [Example 783, (2R)-2-{[(5Sa)-5-{3-chloro-2-methyl-4-[2-(4-methylpiperazin-1-yl)ethoxy]phenyl}-6-(5-phenylpent-1-yn-1-yl)thieno[2,3-d]pyrimidin-4-yl]oxy}-3-(2-{[2-(2-methoxyphenyl)pyrimidin-4-yl]methoxy}phenyl)propanoic acid]: the half-maximal inhibitory concentration (IC50) at Mcl-1 protein (setting [3]) came out at 1.06e-09 M; in test [1] (Homo sapiens, NCI-H929, 48 h), 0.037 µM.

Regarding `Cc1c(-c2c(-c3ccco3)sc3ncnc(OC(Cc4ccccc4OCc4cnn(C)c4)C(=O)O)c23)ccc(OCCN2CCN(C)CC2)c1Cl` [Example 279, (2R)-2-{[(5Sa)-5-{3-chloro-2-methyl-4-[2-(4-methylpiperazin-1-yl)ethoxy]phenyl}-6-(furan-2-yl)thieno[2,3-d]pyrimidin-4-yl]oxy}-3-{2-[(1-methyl-1H-pyrazol-4-yl)methoxy]phenyl}propanoic acid], the IC50 came out at 8e-09 M at Mcl-1 protein (setting [2]) and 0.406 µM in test [1] (Homo sapiens, NCI-H929, 48 h).

As for `CCCCOc1ccc(-c2c(CC)sc3ncnc(OC(Cc4ccccc4)C(=O)O)c23)c(C)c1Cl` [Example 398, (2R)-2-{[(5Sa)-5-(4-butoxy-3-chloro-2-methylphenyl)-6-ethylthieno[2,3-d]pyrimidin-4-yl]oxy}-3-phenylpropanoic acid], the 50% inhibitory concentration (IC50) on Mcl-1 protein (setting [3]) came out at 1.5e-06 M; in test [1] (Homo sapiens, NCI-H929, 48 h), 23.8 µM.

For `COc1cc(-c2sc3ncnc(OC(Cc4ccccc4OC)C(=O)O)c3c2-c2ccc(OCCN3CCN(C)CC3)c(Cl)c2C)ccc1F` [Example 378, (2R)-2-{[(5Sa)-5-{3-chloro-2-methyl-4-[2-(4-methylpiperazin-1-yl)ethoxy]phenyl}-6-(4-fluoro-3-methoxyphenyl)thieno[2,3-d]pyrimidin-4-yl]oxy}-3-(2-methoxyphenyl)propanoic acid], the IC50 on Mcl-1 protein (setting [2]) turned out to be 3.2e-09 M; in test [1] (Homo sapiens, NCI-H929, 48 h), 0.202 µM.

On to `Cc1c(-c2c(-c3cccn3C)sc3ncnc(OC(Cc4ccccc4)C(=O)O)c23)ccc(OCCN2CCN(C)CC2)c1Cl` [Example 503, (2R)-2-{[(5Sa)-5-{3-chloro-2-methyl-4-[2-(4-methylpiperazin-1-yl)ethoxy]phenyl}-6-(1-methyl-1H-pyrrol-2-yl)thieno[2,3-d]pyrimidin-4-yl]oxy}-3-phenylpropanoic acid], for which the IC50 on Mcl-1 protein (setting [3]) was 5e-07 M; in test [1] (Homo sapiens, NCI-H929, 48 h), 7.02 µM.

As to `CCCCn1nccc1COc1ccccc1CC(Oc1ncnc2sc(-c3ccc(OCCOC)nc3)c(-c3ccc(OCCN4CCN(C)CC4)c(Cl)c3C)c12)C(=O)O` [Example 622, (2R)-3-{2-[(1-butyl-1H-pyrazol-5-yl)methoxy]phenyl}-2-[((5Sa)-5-{3-chloro-2-methyl-4-[2-(4-methylpiperazin-1-yl)ethoxy]phenyl}-6-[6-(2-methoxyethoxy)pyridin-3-yl]thieno[2,3-d]pyrimidin-4-yl)oxy]propanoic acid], the IC50 on Mcl-1 protein (setting [3]) was 1.1e-08 M; in test [1] (Homo sapiens, NCI-H929, 48 h) it was 0.109 µM.

Consider `COc1cc(-c2sc3ncnc(OC(Cc4ccccc4OCc4cnccn4)C(=O)O)c3c2-c2ccc(OCCN3CCN(C)CC3)c(Cl)c2C)ccc1F` [Example 386, (2R)-2-{[(5Sa)-5-{3-chloro-2-methyl-4-[2-(4-methylpiperazin-1-yl)ethoxy]phenyl}-6-(4-fluoro-3-methoxyphenyl)thieno[2,3-d]pyrimidin-4-yl]oxy}-3-[2-(pyrazin-2-ylmethoxy)phenyl]propanoic acid], for which the IC50 was found to be 1e-08 M at Mcl-1 protein (setting [2]) and 0.075 µM in test [1] (Homo sapiens, NCI-H929, 48 h).
